Measurements from the NIST ThermoML archive (doi:10.1021/acs.jced.7b00520).

Test: mn = molality of the nth substance listed, in mol/kg
Settings: 101.3 kPa, Liquid; for viscosity: Capillary tube (Ostwald / Ubbelohde) method; for mass density: Vibrating tube method

Cn1cnc2c1c(=O)[nH]c(=O)n2C [1H-purine-2,6-dione, 3,7-dihydro-3,7-dimethyl-] + O
Settings	mass density, 288.15 K [kg/m3]	mass density, 298.15 K [kg/m3]	mass density, 308.15 K [kg/m3]	mass density, 318.15 K [kg/m3]	viscosity, 288.15 K [mPa·s]	viscosity, 298.15 K [mPa·s]	viscosity, 308.15 K [mPa·s]	viscosity, 318.15 K [mPa·s]
m1 = 0.00051	999.157	997.073	994.088	990.268	1.138	0.891	0.72	0.597
m1 = 0.0007	999.167	997.083	994.097	990.277	1.139	0.891	0.72	0.597
m1 = 0.0009	999.177	997.093	994.107	990.287	1.139	0.891	0.72	0.597
m1 = 0.00098	999.182	997.097	994.111	990.291	1.139	0.891	0.72	0.597
m1 = 0.00123	999.195	997.11	994.123	990.303	1.139	0.891	0.72	0.597
m1 = 0.00147	–	–	–	–	1.139	0.891	0.72	0.597
m1 = 0.00148	999.209	997.123	994.135	990.314	–	–	–	–
m1 = 0.00182	–	–	–	–	1.139	0.891	0.72	0.597
m1 = 0.00183	999.228	997.141	994.152	990.331	–	–	–	–
m1 = 0.00212	–	–	–	–	1.139	0.891	0.72	0.597
m1 = 0.00213	999.244	997.156	994.167	990.346	–	–	–	–

Cn1c(=O)c2c(ncn2C)n(C)c1=O [caffeine] + O
Settings	mass density, 288.15 K [kg/m3]	mass density, 298.15 K [kg/m3]	mass density, 308.15 K [kg/m3]	mass density, 318.15 K [kg/m3]	viscosity, 288.15 K [mPa·s]	viscosity, 298.15 K [mPa·s]	viscosity, 308.15 K [mPa·s]	viscosity, 318.15 K [mPa·s]
m1 = 0.00508	–	–	–	–	1.14	0.895	0.723	0.599
m1 = 0.0051	999.404	997.304	994.303	990.464	–	–	–	–
m1 = 0.00693	–	–	–	–	1.142	0.896	0.724	0.6
m1 = 0.00695	999.505	997.399	994.39	990.545	–	–	–	–
m1 = 0.009	–	–	–	–	1.144	0.896	0.724	0.601
m1 = 0.00902	999.619	997.504	994.488	990.637	–	–	–	–
m1 = 0.01986	–	–	–	–	1.147	0.9	0.728	0.606
m1 = 0.01993	1000.22	998.06	995.013	991.121	–	–	–	–
m1 = 0.02978	–	–	–	–	1.152	0.905	0.732	0.609
m1 = 0.02992	1000.77	998.576	995.497	991.571	–	–	–	–
m1 = 0.03531	1001.07	998.853	995.759	991.812	–	–	–	–
m1 = 0.03533	–	–	–	–	1.154	0.907	0.735	0.611
m1 = 0.03983	–	–	–	–	1.156	0.91	0.737	0.613
m1 = 0.04008	1001.34	999.101	996.001	992.025	–	–	–	–
m1 = 0.04953	–	–	–	–	1.162	0.914	0.741	0.617
m1 = 0.04992	1001.89	999.619	996.484	992.483	–	–	–	–
